Usually logD stands for lipophilicity at a set pH, counting ionised and neutral species. What is called half-life is the time needed for the level to fall by half in the phase considered. Read a low half-life as rapid decline. A word on the bioavailability: it is the share of a dose that reaches the circulation, judged against a reference dose that is usually intravenous. The term AUC(0-inf) denotes total exposure, with the tail of the curve extrapolated. Read a high AUC(0-inf) as more exposure. For orientation: clearance means a measure of how efficiently the substance is removed, as volume per time. High values mean a high capacity for elimination, low ones a low capacity for elimination. By Tmax is commonly meant the time from dosing to the highest level. The term Cmax denotes the highest concentration seen after dosing.

The nature of one data set: physchem. To be noted: n-octanol/water, pH 7.4.
Data set [1] is described as follows: in vitro. To be noted: human, pooled liver microsomes.
Data set [2] in a line: in vitro. To be noted: rat, liver microsomes.
A short description of data set [3]: in vitro. The settings on record: mouse, liver microsomes. A general note: Liver microsomes are a subcellular fraction often used to study metabolism.
A short description of data set [4]: Oral bioavailability in Balb/c mouse at 150 mg/kg by mass spectrometry. It counts as ADME, organism-based. The settings on record: in vivo.
The nature of data set [5]: Oral bioavailability in Balb/c mouse at 50 mg/kg by mass spectrometry. To be noted: in vivo. It counts as ADME, organism-based.
Data set [6] can be described thus: AUC (0 to infinity) in Balb/c mouse at 50 mg/kg, iv by mass spectrometry. It counts as ADME, organism-based. Details: route intravenous, time infinity, dose 50 mg/kg. To be noted: in vivo.
The nature of data set [7]: AUC (0 to infinity) in Balb/c mouse at 150 mg/kg, po by mass spectrometry. It is filed as ADME, organism-based. The settings on record: in vivo. Also noted: route oral, time infinity, dose 150 mg/kg.
Data set [8] is described as follows: Clearance in Balb/c mouse at 50 mg/kg, iv by mass spectrometry. It is filed as ADME, organism-based. To be noted: in vivo.
The nature of data set [9]: Tmax in Balb/c mouse at 150 mg/kg, po by mass spectrometry. It counts as ADME, organism-based. To be noted: in vivo.
Data set [10] in a line: Cmax in Balb/c mouse at 50 mg/kg, po by mass spectrometry. It counts as ADME, organism-based. Details: route oral, dose 50 mg/kg. The settings on record: in vivo.
The nature of data set [11]: Tmax in Balb/c mouse at 50 mg/kg, po by mass spectrometry. It is filed as ADME, organism-based. To be noted: in vivo.
Data set [12] is described as follows: AUC (0 to infinity) in Balb/c mouse at 50 mg/kg, po by mass spectrometry. It is filed as ADME, organism-based. Details: route oral, time infinity, dose 50 mg/kg. To be noted: in vivo.
Data set [13] can be described thus: Cmax in Balb/c mouse at 150 mg/kg, po by mass spectrometry. Details: route oral, dose 150 mg/kg. It counts as ADME, organism-based. The settings on record: in vivo.
Data set [14] can be described thus: Volume of distribution at steady state in Balb/c mouse at 50 mg/kg, iv by mass spectrometry. To be noted: in vivo, read-out: Vdss. It counts as ADME, organism-based.

SMILES strings stand for the structures. Bounds are passed on as bounds.

In the data set “physchem”, `O=C(CCCCCCC(=O)Nc1ccccc1)NO` [VORINOSTAT] came in with a logD of 1.05.

Turning to `Nc1ncc(-c2nc(N3CCOCC3)c3ncn(CCCCCCC(=O)NO)c3n2)cn1`, the half-life at 1 h, 5 µM in “in vitro [1]” was greater than 60 min; in “in vitro [2]”, 35 min; in the data set “in vitro [3]”, greater than 60 min.

With `COc1ccc(-c2nc(N3CCOCC3)c3sc(CN(C)c4ncc(C(=O)NO)cn4)cc3n2)cn1` [FIMEPINOSTAT], in the data set “physchem”, the logD came out at 3.07.

On to `O=C(CCCCCCn1cnc2c(N3CCOCC3)nc(-c3cccc(CO)c3)nc21)NO`, for which the bioavailability was found to be 18.1% in [4] and 5.8% in data set [5]. Moreover, the results for the AUC(0-inf) in [6], in [7] and in [12] were 16.7 µM·h, 9.06 µM·h and 0.97 µM·h, respectively. The logD in the data set “physchem” was 2.07. For the same compound, the clearance in [8] was 110 mL/min/kg. Also, the Tmax in data set [9] is 30 min; in data set [11], 10.2 min. The Cmax in data set [10] was 3.9 µM; in [13] it was 10.1 µM. In addition, the Vd in data set [14] came to 3.06 L/kg.
